Patent US20230123334A1, “AMINO LIPID COMPOUND, PREPARATION METHOD THEREFOR, AND APPLICATION THEREOF” (SHENZHEN SHENXIN BIOTECHNOLOGY CO., LTD., priority 2020, published 2023)

Legend:
[1] = tested on: HEK293 cells; test: Preliminary screening as mRNA vectors, EGFP mRNA transfection of HEK293 cells; assay type: cell-based; details: HEK293 cells, 96-well plates, EGFP mRNA 50 ng per well; percentage of GFP fluorescent cells relative to total number of cells (Hoechst)
Procedure, shortened: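 Screening format: EGFP mRNA transfection (50 ng/well) into HEK293 in 10% FBS-supplemented DMEM. Percent green fluorescent cells, normalised to Hoechst nuclear count, gave the value; Lipofectamine2000 was the reference transfectant.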

[2] = tested on: HEK293 cells; test: Preliminary screening as DNA vectors, GFP transfection of HEK293 cells; assay type: cell-based; details: HEK293 cells; lipid/DOPE liposome with 75 ng plasmid DNA (psin-EGFP-IRES-Puro); number of cells expressing GFP divided by total number of nuclei (Hoechst)
Procedure, shortened: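 First, amino lipid and DOPE were vortexed in sodium acetate buffer (pH 5.6) to form liposomes. Next, these were held with 75 ng EGFP plasmid at room temperature for 30 min. Finally, HEK293 cells were added, cultured at 37° C., Hoechst-stained, and GFP+/total nuclei scored by imaging.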

| Structure (SMILES) | Absolute mRNA transfection efficiency in HEK293 cells [1] [%] | Absolute DNA transfection efficiency in HEK293 cells [2] [%] |
| --- | --- | --- |
| CCCCCCCCCCCCCCCCCCNc1nc(NCCCCCCCCCCCCC)nc(NCCCN2CCN(C)CC2)n1 [Compound N13N18D9] | 0.8 | 1.1 |
| CCCCCCCCCCCCCCCCCCNc1nc(NCCCCCCCCCCCCC)nc(NCC2CCN(C)CC2)n1 [Compound N13N18D10] | 6.1 | 0.5 |
| CCCCCCCCCCCCCCCNc1nc(NCCCCCCCCCCCCCCC)nc(NCCN(C)C)n1 [Compound N15N15D1] | 0.0 | 2.3 |
| CCCCCCCCCCCCCCCNc1nc(NCCCCCCCCCCCCCCC)nc(NCCN2CCOCC2)n1 [Compound N15N15D2] | 0.0 | 0.0 |
| CCCCCCCCCCCCCCCNc1nc(NCCCCCCCCCCCCCCC)nc(NCCN2CCCC2)n1 [Compound N15N15D3] | 3.8 | 1.8 |
| CCCCCCCCCCCCCCCNc1nc(NCCCCCCCCCCCCCCC)nc(NCCN2CCCCC2)n1 [Compound N15N15D4] | 0.8 | 1.3 |
| CCCCCCCCCCCCCCCNc1nc(NCCCCCCCCCCCCCCC)nc(NCCN2CCN(C)CC2)n1 [Compound N15N15D5] | 0.0 | 0.9 |
| CCCCCCCCCCCCCCCNc1nc(NCCCCCCCCCCCCCCC)nc(NCCCN(C)C)n1 [Compound N15N15D6] | 0.0 | 1.5 |
| CCCCCCCCCCCCCCCNc1nc(NCCCCCCCCCCCCCCC)nc(NCCN(CC)CC)n1 [Compound N15N15D7] | 0.0 | 0.5 |
| CCCCCCCCCCCCCCCNc1nc(NCCCCCCCCCCCCCCC)nc(NCCCN2CCOCC2)n1 [Compound N15N15D8] | 0.0 | 0.0 |
| CCCCCCCCCCCCCCCNc1nc(NCCCCCCCCCCCCCCC)nc(NCCCN2CCN(C)CC2)n1 [Compound N15N15D9] | 0.0 | 0.4 |
| CCCCCCCCCCCCCCCNc1nc(NCCCCCCCCCCCCCCC)nc(NCC2CCN(C)CC2)n1 [Compound N15N15D10] | 4.2 | 1.1 |
| CCCCCCCCCCCCCCCCNc1nc(NCCCCCCCCCCCCCCC)nc(NCCN(C)C)n1 [Compound N15N16D1] | 3.6 | 1.8 |
| CCCCCCCCCCCCCCCCNc1nc(NCCCCCCCCCCCCCCC)nc(NCCN2CCOCC2)n1 [Compound N15N16D2] | 0.0 | 0.0 |
| CCCCCCCCCCCCCCCCNc1nc(NCCCCCCCCCCCCCCC)nc(NCCN2CCCC2)n1 [Compound N15N16D3] | 6.1 | 2.5 |
| CCCCCCCCCCCCCCCCNc1nc(NCCCCCCCCCCCCCCC)nc(NCCN2CCCCC2)n1 [Compound N15N16D4] | 1.6 | 1.9 |
| CCCCCCCCCCCCCCCCNc1nc(NCCCCCCCCCCCCCCC)nc(NCCN2CCN(C)CC2)n1 [Compound N15N16D5] | 0.0 | 0.7 |
| CCCCCCCCCCCCCCCCNc1nc(NCCCCCCCCCCCCCCC)nc(NCCCN(C)C)n1 [Compound N15N16D6] | 1.3 | 0.8 |
| CCCCCCCCCCCCCCCCNc1nc(NCCCCCCCCCCCCCCC)nc(NCCN(CC)CC)n1 [Compound N15N16D7] | 0.0 | 0.9 |
| CCCCCCCCCCCCCCCCNc1nc(NCCCCCCCCCCCCCCC)nc(NCCCN2CCOCC2)n1 [Compound N15N16D8] | 0.0 | 0.0 |

| Structure (SMILES) | Absolute mRNA transfection efficiency in HEK293 cells [1] [%] | Absolute DNA transfection efficiency in HEK293 cells [2] [%] |
| --- | --- | --- |
| CCCCCCCCCCCCCCCCNc1nc(NCCCCCCCCCCCCCCC)nc(NCCCN2CCN(C)CC2)n1 [Compound N15N16D9] | 1.7 | 2.1 |
| CCCCCCCCCCCCCCCCNc1nc(NCCCCCCCCCCCCCCC)nc(NCC2CCN(C)CC2)n1 [Compound N15N16D10] | 0.0 | 1.5 |
| CCCCCCCCCCCCCCCCCCNc1nc(NCCCCCCCCCCCCCCC)nc(NCCN(C)C)n1 [Compound N15N18D1] | 0.0 | 0.0 |
| CCCCCCCCCCCCCCCCCCNc1nc(NCCCCCCCCCCCCCCC)nc(NCCN2CCOCC2)n1 [Compound N15N18D2] | 0.0 | 0.0 |
| CCCCCCCCCCCCCCCCCCNc1nc(NCCCCCCCCCCCCCCC)nc(NCCN2CCCC2)n1 [Compound N15N18D3] | 8.6 | 3.0 |
| CCCCCCCCCCCCCCCCCCNc1nc(NCCCCCCCCCCCCCCC)nc(NCCN2CCCCC2)n1 [Compound N15N18D4] | 1.9 | 1.6 |
| CCCCCCCCCCCCCCCCCCNc1nc(NCCCCCCCCCCCCCCC)nc(NCCN2CCN(C)CC2)n1 [Compound N15N18D5] | 0.0 | 0.0 |
| CCCCCCCCCCCCCCCCCCNc1nc(NCCCCCCCCCCCCCCC)nc(NCCCN(C)C)n1 [Compound N15N18D6] | 8.6 | 0.6 |
| CCCCCCCCCCCCCCCCCCNc1nc(NCCCCCCCCCCCCCCC)nc(NCCN(CC)CC)n1 [Compound N15N18D7] | 8.3 | 3.2 |
| CCCCCCCCCCCCCCCCCCNc1nc(NCCCCCCCCCCCCCCC)nc(NCCCN2CCOCC2)n1 [Compound N15N18D8] | 0.0 | 0.9 |
| CCCCCCCCCCCCCCCCCCNc1nc(NCCCCCCCCCCCCCCC)nc(NCCCN2CCN(C)CC2)n1 [Compound N15N18D9] | 0.0 | 0.7 |
| CCCCCCCCCCCCCCCCCCNc1nc(NCCCCCCCCCCCCCCC)nc(NCC2CCN(C)CC2)n1 [Compound N15N18D10] | 7.4 | 3.5 |
| CCCCCCCCCCCCCCCCNc1nc(NCCCCCCCCCCCCCCCC)nc(NCCN(C)C)n1 [Compound N16N16D1] | 9.5 | 1.3 |
| CCCCCCCCCCCCCCCCNc1nc(NCCCCCCCCCCCCCCCC)nc(NCCN2CCOCC2)n1 [Compound N16N16D2] | 0.0 | 0.2 |
| CCCCCCCCCCCCCCCCNc1nc(NCCCCCCCCCCCCCCCC)nc(NCCN2CCCC2)n1 [Compound N16N16D3] | 2.8 | 1.4 |
| CCCCCCCCCCCCCCCCNc1nc(NCCCCCCCCCCCCCCCC)nc(NCCN2CCCCC2)n1 [Compound N16N16D4] | 0.0 | 0.9 |
| CCCCCCCCCCCCCCCCNc1nc(NCCCCCCCCCCCCCCCC)nc(NCCN2CCN(C)CC2)n1 [Compound N16N16D5] | 0.0 | 0.0 |
| CCCCCCCCCCCCCCCCNc1nc(NCCCCCCCCCCCCCCCC)nc(NCCCN(C)C)n1 [Compound N16N16D6] | 0.0 | 0.9 |
| CCCCCCCCCCCCCCCCNc1nc(NCCCCCCCCCCCCCCCC)nc(NCCN(CC)CC)n1 [Compound N16N16D7] | 7.9 | 0.0 |
| CCCCCCCCCCCCCCCCNc1nc(NCCCCCCCCCCCCCCCC)nc(NCCCN2CCOCC2)n1 [Compound N16N16D8] | 1.6 | 0.5 |
